The values below come from US10688093B2, “Methods, compositions, and uses of novel Fyn kinase inhibitors” (priority 2015, dated 2020).

pIC50: −log10 of the molar value.

full-length recombinant human FYN A, sequence (P06241 whole entry): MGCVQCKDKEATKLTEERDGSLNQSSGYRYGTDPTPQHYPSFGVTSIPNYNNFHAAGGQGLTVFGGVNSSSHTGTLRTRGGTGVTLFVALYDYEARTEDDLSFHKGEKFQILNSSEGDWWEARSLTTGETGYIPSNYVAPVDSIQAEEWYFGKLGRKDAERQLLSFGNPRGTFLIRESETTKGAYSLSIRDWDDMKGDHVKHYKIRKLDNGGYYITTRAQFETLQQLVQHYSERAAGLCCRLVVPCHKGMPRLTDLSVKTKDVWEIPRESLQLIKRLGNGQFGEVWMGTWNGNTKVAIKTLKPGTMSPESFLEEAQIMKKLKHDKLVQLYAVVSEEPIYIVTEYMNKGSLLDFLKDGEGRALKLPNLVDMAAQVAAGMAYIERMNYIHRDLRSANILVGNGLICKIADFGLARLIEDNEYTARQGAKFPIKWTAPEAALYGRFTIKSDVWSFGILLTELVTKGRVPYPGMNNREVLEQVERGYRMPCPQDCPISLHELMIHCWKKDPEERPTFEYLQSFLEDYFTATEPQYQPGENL

System in the first assay: not given
Assay: not given
The conditions noted are these: Fyn knockout strains; cited from earlier work.
Turning to `CN(C)S(=O)(=O)c1ccc2c(c1)/C(=C/c1cc3c([nH]1)CCCC3)C(=O)N2` [SU6656], the “lipid utilization and energy utilization” value is “no increase in either parameter”.

Still in this assay, the particulars now being: treated mice relative to untreated control mice; cited from earlier work.
As for `CN(C)S(=O)(=O)c1ccc2c(c1)/C(=C/c1cc3c([nH]1)CCCC3)C(=O)N2` [SU6656], the fat mass entry is on record as “significantly reduced”.

Another assay has as its target full-length recombinant human FYN A (Homo sapiens (Human), UniProt P06241). The assay is described as follows: ADP-Glo Kinase Assay of FYN kinase inhibition. The conditions noted are these: primary screen, initial compounds. Type of assay: biochemical. In a few lines: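 ADP-Glo read-out of peptide phosphorylation after 90 min RT with 12.5 pmol ATP and 100 pg 12-mer substrate. Enzyme was N-GST full-length human FYN A from insect cells, 3 pg, pre-incubated 30 min with compound, 10 points from 10 μM top, 3-fold steps; IC50 from curve.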
A general note: ADP-Glo turns the ADP formed in a reaction into a luminescent signal.
Take `CC(=O)Nc1ccc(-c2ccnc3[nH]nc(C4CC4)c23)cc1` [Compound 495, N-[4-(3-cyclopropyl-1H-pyrazolo[3,4-b]pyridin-4-yl)phenyl] acetamide]: the negative-log IC50 (pIC50) was 5.05.

For the compound `O=C(NC1CC1)c1ccc(-c2cn3c(-c4ccc(O)cc4)cnc3cn2)cc1` [388_0080_7489, N-cyclopropyl-4-[3-(4-hydroxyphenyl)imidazo[1,2-a]pyrazin-6-yl]benzamide], the pIC50 is 5.71.

As to `CC(=O)Nc1ccc(-c2ccc3ncc(-c4ccc(CO)cc4)n3n2)cc1` [Compound 419, N-[4-[3-[4-(hydroxymethyl)phenyl]imidazo [1,2-b]pyridazin-6-yl]phenyl] acetamide], the pIC50 was 4.67.

`Oc1ccc(-c2cn3c(-c4ccsc4)cnc3cn2)cc1` [Compound 199, 4-[3-(3-thienyl)imidazo [1,2-a]pyrazin-6-yl]phenol]: the pIC50 was 5.57.

As to `COc1cc(-c2cnc3ccc(NCc4ccc(C)cc4C)nn23)ccc1O` [229_4319_0314, 4-[6-[(2,4-dimethylphenyl)methylamino]imidazo[1,2-b]pyridazin-3-yl]-2-methoxy-phenol], the pIC50 is 5.28.

In the case of `COc1cc(-c2cc(-c3cccc(C(N)=O)c3)cnc2N)cc(OC)c1OC` [Compound 540, 3-[6-amino-5-(3,4,5-trimethoxy-phenyl)-3-pyridyl] benzamide], the pIC50 was 6.35.

For the compound `CC(=O)Nc1ccc(-c2ccc3ncc(-c4cccc(C(=O)NCCN(C)C)c4)n3n2)cc1` [Compound 461, 3-[6-(4-acetamidophenyl)imidazo[1,2-b]pyridazin-3-yl]-N-(2-dimethylamino-ethyl)benzamide], the pIC50 is 6.01.

For the compound `OC1CCC(Nc2nn3c(-c4cccc(F)c4)cnc3s2)CC1` (centres unmarked) [Compound 571, 4-[[5-(3-fluorophenyl)imidazo[2,1-b] [1,3,4]thiadiazol-2-yl]amino] cyclohexanol], the negative-log IC50 (pIC50) is 5.53.

As to `COc1cncc(-c2cnn3ccc(Nc4ccc(N5CCOCC5)cc4)nc23)c1` [294_0088_0196, 3-(5-methoxy-3-pyridyl)-N-(4-morpholino-phenyl)pyrazolo [1,5-a]pyrimidin-5-amine], the pIC50 is 5.65.

For `OC1CCC(Nc2nn3c(-c4ccc(F)c(Cl)c4)cnc3s2)CC1` (centres unmarked) [Compound 547, 4-[[5-(3-chloro-4-fluoro-phenyl)imidazo [2,1-b][1,3,4]thiadiazol-2-yl]amino] cyclohexanol], the pIC50 was 5.39.

On to `COc1ccccc1-c1n[nH]c2nccc(-c3ccc(N4CCOCC4)cc3)c12` [Compound 489, 4-[4-[3-(2-methoxyphenyl)-1H-pyrazolo[3,4-b]pyridin-4-yl]phenyl] morpholine], for which the negative-log IC50 (pIC50) is 5.86.

Staying with this assay, now noted: secondary screen, re-synthesized and expanded compounds.
For the compound `CC(C)[C@@H](CO)Nc1ccc2ncc(-c3ccncc3)n2n1` [BF000817097, (2S)-3-methyl-2-[[3-(4-pyridyl)-imidazo[1,2-b]pyridazin-6-yl]amino]-butan-1-ol], the negative logarithm of the IC50 (pIC50) was 6.20.

The term pIC50 denotes the IC50 on a negative log10 scale, so that one unit is a factor of ten.
